Active and inactive are the calls of the source.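 Rule for the calls: active = tumour findings in long-term animal cancer tests in more than one sex, species or organ; inactive = no tumour finding and more than one negative test.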
Experiment: DSSTox (CPDBAS) Carcinogenic Potency Database Summary MultiCellCall Results
Settings: animal carcinogenicity bioassays, multi-cell call summary
In short: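 Summary call drawn from chronic long-term cancer bioassays in rats, mice, hamsters, dogs and nonhuman primates, using the most positive result per sex-species. Score: multispecies=50, multisex=30, multisite=20, summed for combinations.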

SMILES	outcome
CC(=O)Oc1ccccc1C(=O)O	inactive; multisex inactive; multispecies inactive
O=c1[nH]cc(F)c(=O)[nH]1	active; multisite active; multisex active
ClC(Cl)=C(Cl)c1c(Cl)c(Cl)c(Cl)c(Cl)c1Cl	inactive; multisex inactive; multispecies inactive
Nc1ccc2oc3ccccc3c2c1	active; multisite active; multisex active
CN(C)CCOC(C)(c1ccccc1)c1ccccn1 (centres undefined)	active; multisite active; multisex active; multispecies active
CC(C)=CCl	active; multisite active; multisex active; multispecies active
CN(N)C=O	active; multisite active; multisex active; multispecies active
Oc1c(Cl)cc(Cl)c(Cl)c1Cc1c(O)c(Cl)cc(Cl)c1Cl	inactive; multisex inactive; multispecies inactive
CC1CCC(C(C)C)C(O)C1 (centres undefined)	inactive; multisex inactive; multispecies inactive
Cn1nc(CO)nc1NCCCOc1cccc(CN2CCCCC2)c1	active; multisex active
O=C(O)c1[nH]n(-c2ccc(S(=O)(=O)O)cc2)c(=O)c1N=Nc1ccc(S(=O)(=O)O)cc1	inactive; multisex inactive; multispecies inactive
CCCN=[N+]([O-])CCC	active; multisite active
ClC(Cl)=C(Cl)C(Cl)=C(Cl)Cl	active; multisex active
Cc1c([N+](=O)[O-])c(C)c([N+](=O)[O-])c(C(C)(C)C)c1[N+](=O)[O-]	active; multisite active; multisex active
COc1ccc2c3c1O[C@H]1[C@@H](O)C=C[C@H]4[C@@H](C2)N(C)CC[C@@]341	inactive; multisex inactive; multispecies inactive
CCCCCCCCCc1ccc(OCCOCCO)cc1	inactive; multispecies inactive
CCCCCCCCCCN(C)N=O	active; multisite active
CC1CC(C)(C)CC(OOC(C)(C)C)(OOC(C)(C)C)C1 (centres undefined)	inactive; multisex inactive
C=C1C[C@]23C[C@@]1(O)CC[C@H]2[C@@]12C=C[C@H](O)[C@@](C)(C(=O)O1)[C@H]2[C@@H]3C(=O)O	inactive; multisex inactive
Cc1c(N(C)C)c(=O)n(-c2ccccc2)n1C	inactive; multisex inactive

SMILES	outcome
C=C(F)F	inactive; multisex inactive
CNNCc1ccc(C(=O)NC(C)C)cc1	active; multisite active; multisex active; multispecies active
OC[C@@H](O)[C@H]1O[C@@H]2O[C@H](C(Cl)(Cl)Cl)O[C@@H]2[C@H]1O	inactive; multisex inactive
CCCCNC(N)=O	inactive; multisex inactive; multispecies inactive
CCCCOC(=O)c1ccc(O)cc1	inactive; multisex inactive
Nc1ccccc1C(=O)OC/C=C/c1ccccc1	active; multisite active; multisex active; multispecies active
[K+]	active; multisex active
CCn1cc(C(=O)O)c(=O)c2ccc(C)nc21	active; multisite active; multisex active
O=C(OOC(=O)c1ccccc1)c1ccccc1	inactive; multispecies inactive
C[N+](C)(C)CCO	inactive; multispecies inactive
Nc1ccc(N=Nc2ccc(N)cc2)cc1	inactive; multisex inactive
O.O.O.O.O.O.O=S(=O)([O-])[O-].[Ni+2]	inactive; multisex inactive; multispecies inactive
O=[N+]([O-])c1ccc2nc[nH]c2c1	active; multisex active
Clc1cc2c(c(Cl)c1Cl)Oc1c(cc(Cl)c(Cl)c1Cl)O2	active; multisex active; multispecies active
O=C1c2cccc(O)c2C(=O)c2c(O)cccc21	active; multisite active; multispecies active
C1CCOC1	active; multisite active; multisex active; multispecies active
O=[N+]([O-])c1ccc(Cl)c([N+](=O)[O-])c1	inactive; multisex inactive; multispecies inactive
CCc1ccccc1	active; multisite active; multisex active; multispecies active
Cc1ccc2c(c1[N+](=O)[O-])C(=O)c1ccccc1C2=O	active; multisite active; multisex active; multispecies active
